Assay results from patent US10160705B2, “Class of HDAC inhibitors expands the renal progenitor cells population and improves the rate of recovery from acute kidney injury” (University of Pittsburgh—Of the Commonwealth System of …, priority 2011, dated 2018).

Tests used:
[1] = tested on: zebrafish embryos; experiment: Phenotypic screen for edema and survival in zebrafish larvae at 72 hpf
In short: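 Embryos (5/well in primary screen; 12–30 per group otherwise) exposed from 2 hpf in E3 medium with 0.5% DMSO, 10 μM in screen or stated concentrations, 28.5 °C for 70 h. At 72 hpf, edema scored by phenotype classification (dominant phenotype in ≥4/5 embryos in screen); survival vs 0 μM by two-tailed Fisher's exact test (p<0.05).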

[2] = tested on: kidney field; experiment: In situ hybridization for kidney markers (pax2a, pax8, cdh17, wt1a, slc4a4, slcl2a1); assay type: in vivo, zebrafish; settings: 3 μM
Method: PTBA was synthesized as described below. Hydroxyurea and aphidicolin were obtained from Sigma-Aldrich.
(§1) In situ hybridization and immunocytochemistry: In situ hybridization was performed as previously described with some modifications.142 Hybridization temperature was 65° C. Embryos were blocked in 2% blocking reagent (Roche) with 5% sheep serum in MAB (100 mM maleic acid and 150 mM NaCl [pH 7.5]). Whole-mount immunocytochemistry with 1:25 mouse anti-α6F antibody (Developmental Studies Hybridoma Bank) and 1:100 Cy3 secondary antibody (Jackson ImmunoResearch) was performed as described previously.108 Embryos were embedded in JB-4 for sectioning per the manufacturer's instructions (Polysciences), sectioned at 5 μm, and mounted with Cytoseal 60 (Richard-Allan Scientific).

[3] = tested on: RA-responsive genes, cyp26a1 and cmlc2; experiment: In situ hybridization for RA-responsive genes cyp26a1 and cmlc2 in 18-somite embryos; assay type: in vivo, zebrafish; settings: 3 μM
Method: as §1
HDACis are believed to lower the threshold of RA necessary to activate transcription. If PTBA treatment facilitates activation of the RA pathway, then expression of genes responsive to RA signaling should change. […] In a previous study, cmlc2 expression was assessed for RAdependent effects in 18-somite embryos (Keegan, B. R., Feldman, J. L., Begemann, G., Ingham, P. W. & Yelon, D. Retinoic acid signaling restricts the cardiac progenitor pool. Science 307, 247-249, (2005)), therefore embryos were collected at the 18-somite stage for continuity. […]

[4] = number of larvae (of 36), 3 μM from 2 hpf, scored at 72 hpf

With O=C(O)CCCSc1ccccc1 [UPHD-00020, 4-(phenylthio)butanoic acid (PTBA)] the “larvae with edemic phenotype / pericardial edema by 72 hpf” value ([1]; 3 μM PTBA, 25 μM PBA, 200 nM TSA) was 92%, the “phenotype in initial chemical screen” value ([1]; 10 μM, larvae at 72 hpf) was “pericardial edema” and the “survival to 72 hpf” value ([1]; 10 μM, n=90) was “died before 72 hpf”. For the same compound, the Dead [1, 4] was 1, the “Edemic 1 (E1)” value [1, 4] was 13 and the “Edemic 2 (E2)” value [1, 4] was 17. For the same compound, the “Edemic 3 (E3)” value [1, 4] was 5, the “Wild-type (WT)” value [1, 4] was 0 and the “expansion of slc4a4 (proximal tubule)” value ([2]; 48 hpf) was 92%. The “pax2a expression at 24 hpf” value ([2]; treatment beginning at 16.5 hpf (15 somites)) was “no kidney field expansion”, the “pax2a expression at 24 hpf” value ([2]; treatment initiated between 2 hpf and 14 hpf (10 somites)) was “expanded pax2a expression” and the “cmlc2 expression decreased, percent of treated embryos” value [3] was 100%. For the same compound, the “cyp26a1 expression increased, percent of treated embryos” value [3] was 100%.
